The experiment has as its system adiponectin. As to the kind of experiment: Expression of adiponectin in 3T3-L1 adipocytes (Western blot). It counts as cell-based, Mouse. The note with it: 3T3-L1, 100 μM isoflavone, 1 mM L-carnitine, 1 mM L-arginine, 100 ppm caffeine, 24 hours. In general terms: In western blotting, separated proteins are transferred to a membrane and probed.

The results in this text go back to patent publication US20100056560A1, “USE FOR TREATING OBESITY AND DIABETES” (priority 2006, published 2010).

Procedure: Mouse undifferentiated 3T3-L1 adipocytes) (purchased from ATCC) were cultured in 10% calf serum-containing DMEM (Dulbecco's modified Eagle's medium, Gibco 1210-0038) in a 10% CO2 incubator to a confluency of 70% while replacing the medium with a fresh medium at 2-day intervals. For differentiation into adipocytes, the cells were cultured in a medium (containing 10% fetal bovine serum, 0.5 mM 3-isobutyl-1-methyxanthine (Sigma), 1 μM dexamethasone (Sigma) and 167 nM insulin (Novo-Nordisk)) for 48 hours, and then the medium was replaced with a DMEM medium (containing 10% fetal bovine serum and 167 nM insulin), in which the cells were further cultured for 48 hours. Finally, the cells were further cultured in a medium (containing only 10% fetal bovine serum) for 48 hours, thus obtaining differentiated adipocytes.
The adipocytes, differentiated in the step 1, were cultured in a medium, containing 51 fatty acid-free calf serum, for 16 hours. On the next day, the cultured cells were washed three times with PBS, and then treated with each of 100 μM isoflavone, 1 mM L-carnitine, 1 mM L-arginine, 100 ppm caffeine and a mixture of 100 μM isoflavone+1 mM L-carnitine+1 mM L-arginine+100 ppm caffeine. After 24 hours of cell incubation, a protein was isolated from each of the media and subjected to Western blot analysis in order to examine a change in the expression of adiponectin.

Consider `Cn1c(=O)c2c(ncn2C)n(C)c1=O` [caffeine], for which the expression of adiponectin entry is listed as “decrease in the expression of adiponectin”.
